Experimental data reported in ChEMBL document CHEMBL4622979, “Non-rigid Diarylmethyl Analogs of Baloxavir as Cap-Dependent Endonuclease Inhibitors of Influenza Viruses” (J Med Chem, 2020).

Tests used:
[1] = Cmax in CD1 mouse lung assessed as baloxavir acid level at 15 mg/kg, po administered as single dose by LC-MS/MS analysis; type: ADME, organism-based; design: dose 15 mg/kg, route oral; details: in vivo
[2] = Ratio of AUClast in CD1 mouse lung to plasma assessed as baloxavir acid level at 15 mg/kg, po administered as single dose by LC-MS/MS analysis; type: ADME, organism-based; details: other tissue
[3] = Cmax in CD1 mouse liver assessed as baloxavir acid level at 15 mg/kg, po administered as single dose measured up to 24 hrs by LC-MS/MS analysis; type: ADME, organism-based; design: dose 15 mg/kg, route oral; details: in vivo
[4] = AUClast in CD1 mouse heart assessed as baloxavir acid level at 15 mg/kg, po administered as single dose measured up to 24 hrs by LC-MS/MS analysis; type: ADME, organism-based; details: in vivo
[5] = Elimination rate constant in CD1 mouse lung assessed as baloxavir acid level at 15 mg/kg, po administered as single dose measured up to 24 hrs by LC-MS/MS analysis; type: ADME, organism-based; details: in vivo
[6] = Half life in CD1 mouse lung assessed as baloxavir acid level at 15 mg/kg, po administered as single dose measured up to 24 hrs by LC-MS/MS analysis; type: ADME, organism-based; details: in vivo
[7] = AUClast in CD1 mouse lung assessed as baloxavir acid level at 15 mg/kg, po administered as single dose measured up to 24 hrs by LC-MS/MS analysis; type: ADME, organism-based; details: in vivo
[8] = AUCinfinity in CD1 mouse lung assessed as baloxavir acid level at 15 mg/kg, po administered as single dose measured up to 24 hrs by LC-MS/MS analysis; type: ADME, organism-based; design: dose 15 mg/kg, route oral, time infinity; details: in vivo
[9] = MRTlast in CD1 mouse lung assessed as baloxavir acid level at 15 mg/kg, po administered as single dose measured up to 24 hrs by LC-MS/MS analysis; type: ADME, organism-based; details: in vivo
[10] = Half life in CD1 mouse brain assessed as baloxavir acid level at 15 mg/kg, po administered as single dose measured up to 24 hrs by LC-MS/MS analysis; type: ADME, organism-based; details: in vivo
[11] = Tmax in CD1 mouse brain assessed as baloxavir acid level at 15 mg/kg, po administered as single dose measured up to 24 hrs by LC-MS/MS analysis; type: ADME, organism-based; details: in vivo
[12] = AUCinfinity in CD1 mouse brain assessed as baloxavir acid level at 15 mg/kg, po administered as single dose measured up to 24 hrs by LC-MS/MS analysis; type: ADME, organism-based; design: dose 15 mg/kg, time infinity, route oral; details: in vivo
[13] = Half life in CD1 mouse spleen assessed as baloxavir acid level at 15 mg/kg, po administered as single dose measured up to 24 hrs by LC-MS/MS analysis; type: ADME, organism-based; details: in vivo
[14] = Tmax in CD1 mouse spleen assessed as baloxavir acid level at 15 mg/kg, po administered as single dose measured up to 24 hrs by LC-MS/MS analysis; type: ADME, organism-based; details: in vivo
[15] = MRTlast in CD1 mouse muscle assessed as baloxavir acid level at 15 mg/kg, po administered as single dose measured up to 24 hrs by LC-MS/MS analysis; type: ADME, organism-based, Muscle tissue; details: in vivo
[16] = Cmax in CD1 mouse lung assessed as (12aR)-12-(Diphenylmethyl)-7-hydroxy-3,4,12,12a-tetrahydro-1H-[1,4]oxazino[3,4-c]pyrido[2,1-f ][1,2,4]triazine-6,8-dione level at 15 mg/kg, po administered as single dose by LC-MS/MS analysis; type: ADME, organism-based; design: dose 15 mg/kg, route oral; details: in vivo
[17] = Cmax in CD1 mouse plasma assessed as (12aR)-12-(Diphenylmethyl)-7-hydroxy-3,4,12,12a-tetrahydro-1H-[1,4]oxazino[3,4-c]pyrido[2,1-f ][1,2,4]triazine-6,8-dione level at 15 mg/kg, po administered as single dose measured up to 24 hrs by LC-MS/MS analysis; type: ADME, organism-based; design: dose 15 mg/kg, route oral; details: in vivo
[18] = AUCinfinity in CD1 mouse plasma assessed as (12aR)-12-(Diphenylmethyl)-7-hydroxy-3,4,12,12a-tetrahydro-1H-[1,4]oxazino[3,4-c]pyrido[2,1-f ][1,2,4]triazine-6,8-dione level at 15 mg/kg, po administered as single dose measured up to 24 hrs by LC-MS/MS analysis; type: ADME, organism-based; design: dose 15 mg/kg, time infinity, route oral; details: in vivo
[19] = Tmax in CD1 mouse blood assessed as (12aR)-12-(Diphenylmethyl)-7-hydroxy-3,4,12,12a-tetrahydro-1H-[1,4]oxazino[3,4-c]pyrido[2,1-f ][1,2,4]triazine-6,8-dione level at 15 mg/kg, po administered as single dose measured up to 24 hrs by LC-MS/MS analysis; type: ADME, organism-based; details: in vivo
[20] = Ratio of AUClast in CD1 mouse blood to plasma assessed as (12aR)-12-(Diphenylmethyl)-7-hydroxy-3,4,12,12a-tetrahydro-1H-[1,4]oxazino[3,4-c]pyrido[2,1-f ][1,2,4]triazine-6,8-dione level at 15 mg/kg, po administered as single dose measured up to 24 hrs by LC-MS/MS analysis; type: ADME, organism-based; details: in vivo
[21] = Elimination rate constant in CD1 mouse liver assessed as (12aR)-12-(Diphenylmethyl)-7-hydroxy-3,4,12,12a-tetrahydro-1H-[1,4]oxazino[3,4-c]pyrido[2,1-f ][1,2,4]triazine-6,8-dione level at 15 mg/kg, po administered as single dose measured up to 24 hrs by LC-MS/MS analysis; type: ADME, organism-based; details: in vivo
[22] = MRTlast in CD1 mouse heart assessed as (12aR)-12-(Diphenylmethyl)-7-hydroxy-3,4,12,12a-tetrahydro-1H-[1,4]oxazino[3,4-c]pyrido[2,1-f ][1,2,4]triazine-6,8-dione level at 15 mg/kg, po administered as single dose measured up to 24 hrs by LC-MS/MS analysis; type: ADME, organism-based; details: in vivo
[23] = Half life in CD1 mouse trachea assessed as (12aR)-12-(Diphenylmethyl)-7-hydroxy-3,4,12,12a-tetrahydro-1H-[1,4]oxazino[3,4-c]pyrido[2,1-f ][1,2,4]triazine-6,8-dione level at 15 mg/kg, po administered as single dose measured up to 24 hrs by LC-MS/MS analysis; type: ADME, organism-based; details: in vivo
[24] = Cmax in CD1 mouse small intestine assessed as (12aR)-12-(Diphenylmethyl)-7-hydroxy-3,4,12,12a-tetrahydro-1H-[1,4]oxazino[3,4-c]pyrido[2,1-f ][1,2,4]triazine-6,8-dione level at 15 mg/kg, po administered as single dose measured up to 24 hrs by LC-MS/MS analysis; type: ADME, organism-based; design: dose 15 mg/kg, route oral; details: in vivo
[25] = Ratio of AUClast in CD1 mouse small intestine to plasma assessed as (12aR)-12-(Diphenylmethyl)-7-hydroxy-3,4,12,12a-tetrahydro-1H-[1,4]oxazino[3,4-c]pyrido[2,1-f ][1,2,4]triazine-6,8-dione level at 15 mg/kg, po administered as single dose measured up to 24 hrs by LC-MS/MS analysis; type: ADME, organism-based; details: other tissue
[26] = Ratio of AUClast in CD1 mouse spleen to plasma assessed as (12aR)-12-(Diphenylmethyl)-7-hydroxy-3,4,12,12a-tetrahydro-1H-[1,4]oxazino[3,4-c]pyrido[2,1-f ][1,2,4]triazine-6,8-dione level at 15 mg/kg, po administered as single dose measured up to 24 hrs by LC-MS/MS analysis; type: ADME, organism-based; details: other tissue

COC(=O)OCOc1c2n(ccc1=O)N([C@@H]1c3ccccc3SCc3c1ccc(F)c3F)[C@@H]1COCCN1C2=O [BALOXAVIR MARBOXIL]
Cmax [1]: 1517 ng/g | Ratio AUC [2]: 16.7 | Cmax [3]: 15342 ng/g | AUClast [4]: 8959 ng·h/g | Kel [5]: 0.2 h⁻¹ | t1/2 [6]: 3.4 h | AUClast [7]: 8959 ng·h/g | AUC [8]: 9025 ng·h/g | MRTlast [9]: 4.84 h | t1/2 [10]: 11.3 h | Tmax [11]: 2 h | AUC [12]: 411 ng·h/g | t1/2 [13]: 3.51 h | Tmax [14]: 2 h | MRTlast [15]: 3.35 h

COC(=O)OCOc1c2n(ccc1=O)N(C(c1ccccc1)c1ccccc1)[C@@H]1COCCN1C2=O
Cmax [16]: 1882 ng/g | Cmax [17]: 1251 ng/mL | AUC [18]: 3385 ng·h/mL | Tmax [19]: 0.5 h | Ratio AUC [20]: 0.82 | Kel [21]: 0.3 h⁻¹ | MRTlast [22]: 1.88 h | t1/2 [23]: 4.91 h | Cmax [24]: 24707 ng/g | Ratio AUC [25]: 13.3 | Ratio AUC [26]: 1.38
